Test results as given in patent US20150218142A1, “Derivatives of Betulin” (GlaxoSmithKline LLC, priority 2011, published 2015).
Where two headings read alike, the source gives them in different places.

Experiments:
HIV [1] = tested on: HIV
HIV [2] = conditions: McCallister et al. 2008 poster; cited from earlier work
HIV [3] = assay: microbe, parasite or virus in culture; conditions: Human immunodeficiency virus 1, read-out: LHIV IC50 value with 40% human serum
HIV NL4-3 wt = assay: microbe, parasite or virus in culture; format: cell-based
[4] = tested on: NL4-3 strain with V370A site directed mutant polymorphism; assay: microbe, parasite or virus in culture; format: cell-based, HIV-1
[5] = Human immunodeficiency virus 1, NL43, Consensus Clade B Sp1 Genotype, read-out: MT4 NL. wt* EC50
[6] = Human immunodeficiency virus 1, NL43, HIV MT4 Antiviral Cell Assay of Example 84, read-out: EC50 NL4-3 wt

For C=C(C)[C@@H]1CC[C@]2(C(=O)O)CC[C@]3(C)[C@H](CC[C@@H]4[C@@]5(C)CC[C@H](OC(=O)CC(C)(C)C(=O)O)C(C)(C)[C@@H]5CC[C@]43C)[C@@H]12 [Bevirimat], the “fold shift in the IC50 value, LHIV assay, 40% human serum” value (HIV [1]; addition of 40% human serum) is listed as 174.9 fold, the “fold shift with human serum” value (HIV [1]; human protein shift, human serum (HS)) is listed as 157 fold and the Cmin target (HIV [2]) is listed as > 20000 ng/mL. It also gave an IC50 (HIV [3]) of 3880 nM.

For CC(C)C1=C2[C@H]3CC[C@@H]4[C@@]5(C)CC[C@H](OC(=O)CC(C)(C)C(=O)O)C(C)(C)[C@@H]5CC[C@@]4(C)[C@]3(C)CC[C@@]2(C(=O)C(=O)NC2(c3ccc(Cl)cc3)CC2)CC1=O [Compound A], the EC50 (HIV NL4-3 wt; [5]) was 14 nM and the EC50 ([4]; Human immunodeficiency virus 1, NL43, read-out: MT4 NL. V370A EC50 (nM)) was 16 nM.

In the case of CC(C)C1=C2[C@H]3CC[C@@H]4[C@@]5(C)CC[C@H](OC(=O)CC(C)(C)C(=O)O)C(C)(C)[C@@H]5CC[C@@]4(C)[C@]3(C)CC[C@@]2(C(=O)C(=O)N(CCN(C)C)Cc2ccc(Cl)cc2)CC1=O [Compound C], the EC50 (HIV NL4-3 wt; Human immunodeficiency virus 1, NL43, Table 7, read-out: HIV w/t MT4 EC50) is reported as 6 nM, the EC50 (HIV NL4-3 wt; Human immunodeficiency virus 1, NL43, read-out: MT4 antiviral assay NL4-3 strain / HIV wild type EC50) is reported as 6 nM and the EC50 ([4]; Human immunodeficiency virus 1, NL43, read-out: MT4 antiviral assay V370A polymorphism EC50) is reported as 19 nM. The EC50 ([4]; Human immunodeficiency virus 1, NL43, read-out: V370A MT4 EC50) was 19 nM and the EC50 ([4]; Human immunodeficiency virus 1, NL43, read-out: protein adjusted EC50 for the V370A polymorphic virus) was 929 nM.

CC(C)C1=C2[C@H]3CC[C@@H]4[C@@]5(C)CC[C@H](OC(=O)CC(C)(C)C(=O)O)C(C)(C)[C@@H]5CC[C@@]4(C)[C@]3(C)CC[C@@]2(C(=O)C(=O)NC2(c3ncc(Cl)cn3)CC2)CC1=O [CompoundB] gave an EC50 (HIV NL4-3 wt; [5]) of 8 nM.

With CC(C)C1=C2[C@H]3CC[C@@H]4[C@@]5(C)CC[C@H](OC(=O)CC(C)(C)C(=O)O)C(C)(C)[C@@H]5CC[C@@]4(C)[C@]3(C)CC[C@@]2([C@H](O)CNCc2cccc(Cl)c2)CC1=O [compound 37] the EC50 (HIV NL4-3 wt; [6]) was 26.9 nM.

CC(C)C1=C2[C@H]3CC[C@@H]4[C@@]5(C)CC[C@H](OC(=O)CC(C)(C)C(=O)O)C(C)(C)[C@@H]5CC[C@@]4(C)[C@]3(C)CC[C@@]2([C@@H](O)CNCc2cccc(Cl)c2)CC1=O [compound 38] showed an EC50 (HIV NL4-3 wt; [6]) of 5.2 nM.

CC(=O)O[C@H](CNCc1ccccc1)[C@@]12CC[C@]3(C)[C@H](CC[C@@H]4[C@@]5(C)CC[C@H](OC(=O)CC(C)(C)C(=O)O)C(C)(C)[C@@H]5CC[C@]43C)C1=C(C(C)C)C(=O)C2 [compound 53] gave an EC50 (HIV NL4-3 wt; [6]) of 6.2 nM.

For CC(C)C1=C2[C@H]3CC[C@@H]4[C@@]5(C)CC[C@H](OC(=O)CC(C)(C)C(=O)O)C(C)(C)[C@@H]5CC[C@@]4(C)[C@]3(C)CC[C@@]2([C@@H](O)CNC2CCCCC2)CC1=O [compound 59], the EC50 (HIV NL4-3 wt; [6]) was 5.3 nM.
